According to patent publication US5491167A, “Hexahydronaphthalene ester derivatives, their preparation and their therapeutic uses” (Sankyo Company, Limited, priority 1993, dated 1996):
Structures can show the parent of a compound that is named as a salt.

Target: T1, HMG-CoA reductase (Rattus norvegicus, UniProt P51639)
T1 construct: an enzyme solution (rat liver microsomal fraction); from tissue; host or cells: rat liver microsomal fraction
T1 sequence (P51639 1-887): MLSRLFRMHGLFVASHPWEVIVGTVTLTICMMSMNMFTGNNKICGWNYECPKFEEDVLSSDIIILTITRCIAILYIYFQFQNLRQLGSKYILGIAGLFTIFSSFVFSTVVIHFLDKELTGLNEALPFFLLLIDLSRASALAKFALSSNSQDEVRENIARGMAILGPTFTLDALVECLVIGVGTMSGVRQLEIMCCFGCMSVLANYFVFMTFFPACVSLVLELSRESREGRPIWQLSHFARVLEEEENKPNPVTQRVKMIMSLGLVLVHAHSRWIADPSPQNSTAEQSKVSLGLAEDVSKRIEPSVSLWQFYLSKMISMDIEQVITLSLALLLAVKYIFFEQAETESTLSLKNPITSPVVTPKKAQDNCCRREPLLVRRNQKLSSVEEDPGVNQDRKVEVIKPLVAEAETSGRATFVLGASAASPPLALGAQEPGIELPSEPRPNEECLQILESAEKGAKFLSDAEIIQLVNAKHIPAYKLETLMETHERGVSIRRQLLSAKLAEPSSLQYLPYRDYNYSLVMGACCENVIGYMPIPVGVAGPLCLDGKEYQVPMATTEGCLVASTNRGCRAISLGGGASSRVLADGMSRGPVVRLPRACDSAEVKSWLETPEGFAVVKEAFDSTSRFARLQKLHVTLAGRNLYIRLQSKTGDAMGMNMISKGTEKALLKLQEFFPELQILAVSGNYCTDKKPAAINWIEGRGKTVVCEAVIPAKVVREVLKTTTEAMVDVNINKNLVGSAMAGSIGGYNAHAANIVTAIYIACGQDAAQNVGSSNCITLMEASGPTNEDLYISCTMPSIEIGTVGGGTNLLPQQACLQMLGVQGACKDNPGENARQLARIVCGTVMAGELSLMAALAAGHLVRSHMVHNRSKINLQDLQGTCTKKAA
Test: Determination of HMG-CoA Reductase Inhibitory Activity
Type: biochemical
Conditions: rat liver microsomal fraction, 0.2 mM [14C]HMG-CoA, pH7.4, 15 minutes at 37° C
Protocol: The ability of the preferred test compounds to inhibit the activity of HMG-CoA reductase was determined by the method of Koga et al. [Eur. J. Biochem. 209, 315-319 (1992)], the improved procedure of Kuroda et al. [Biochem. Biophys, Acta, 485, 70-81 (1977)] which a modification of the method of Shapiro et al. [Anal. Biochem. 31, 383-390, (1969)].
A solution of 5 μl of the preferred test compound dissolved in distilled water was added to 45 μl of a reaction mixture containing 100 mM of a potassium phosphate buffer (pH7.4), 0.2 mM of [^14 C]HMG-CoA, 10 mM of ethylenediaminetetraacetic acid disodium salt, 10 mM of dithiothreitol, 10 mM of NADPH (=reduced nicotinamide adenine dinucleotide phosphate) and an enzyme solution (rat liver microsomal fraction). The concentrations are expressed in terms of the final 50 μl of assay mixture. The resulting mixture was incubated for 15 minutes at 37° C. The reaction was then terminated by adding 10 μl of 2N aqueous hydrochloric acid, to lactonize the [^14 C]mevalonate produced. After 15 minutes incubation, 1 ml of a 1:1 by volume aqueous suspension of Biorex-5 was added and the tubes were vigorously mixed using a Vortex mixer. […] The supernatant (400 μl) was mixed with 4.5 ml of Optiflow™ in scintillation vials and the activity of the [^14 C]mevalonolactone was determined by a liquid scintillation counter.

IC50 [µM]	Compound
0.0306	CCC(Oc1ccc(C)cc1)C(=O)O[C@H]1C[C@H](O)C=C2C=C[C@H](C)[C@H](CC[C@@H](O)C[C@@H](O)CC(=O)O)[C@H]21 (stereo partly drawn) [Example 3, Sodium Salt of (3R,5R)-3,5-dihydroxy-7-{(1S,2S,6S,8S,8aR)-1,2,6,7,8,8a-hexahydro-6-hydroxy-8-[(2RS)-2-(4-methylphenoxy)butyryloxy]-2-methyl-1-naphthyl}heptanoic acid]
0.0335	CCC(Oc1c(C)cccc1C)C(=O)O[C@H]1C[C@H](O)C=C2C=C[C@H](C)[C@H](CC[C@@H](O)C[C@@H](O)CC(=O)O)[C@H]21 (stereo partly drawn) [Example 6, Sodium salt of (3R,5R)-3,5-dihydroxy-7-{(1S,2S,6S,8S,8aR)-1,2,6,7,8,8a-hexahydro-6-hydroxy-8-[(2RS)-2-(2,6-dimethylphenoxy)butyryloxy]-2-methyl-1-naphthyl}heptanoicacid]
